Where “and” joins values, the source holds several entries; their conditions need not be identical. Identical values can stand only once. Like-named read-outs stand apart in the source and are kept apart here.
Legend:
[1] = tested on: PC-3 cell Akt (Ser473) phosphorylation; assay: Inhibition of phosphorylation level of PC-3 cell Akt (Ser473), Cisbio HTRF phospho Akt (Ser473) cell-based assay; parameters: species or system human; conditions: hEGF 100 ng/ml stimulation, 1st and 2nd test where printed
Experimental: The inhibitory activity of the compounds of present invention to the phosphorylation level of PC-3 cell Akt (Ser473) is studied by using Cisbio HTRF phospho Akt (Ser473) cell-based assay test kit.
Cell strain: PC-3 prostate cancer cells line (cell bank of Chinese Academy of Sciences) is cultured by using culture medium (F12K+10% FBS).
hEGF is prepared as stock solution of 100 ug/ml with 10 mM acetic acid, and the stock solution is diluted to 200 ng/ml with serum-free medium, added 50 ul to each well to be stimulated.
b) Preparation of Complete Lysate • 4×Lysis Buffer is diluted 4 times with ddH2O to prepare 1×Lysis Buffer. • 100×Blocking Reagent is diluted 100 times with 1×Lysis Buffer.
c) Preparation of Detection Liquid • 20×Anti-Phospho-Akt is diluted 20 times with Detection Buffer. • 20×Anti-Akt is diluted 20 times with Detection Buffer.
The compounds are diluted with DMSO, and the working concentration of compounds is 100 times of detection concentration.
Cells in logarithmic growth phase are collected, counted, and resuspended with complete culture medium;
The cell concentration is adjusted to appropriate concentration, and cell suspension is inoculated into 96 well plates at 50 μl per well;
Cells are incubated for more than 4 h in the 5% CO2 incubator at temperature of 37° C., relative humidity of 100%;
Cell plate is removed from the incubator. The cell suspension is aspirated gently, and 50 ul serum-free F12K medium is quickly added, then the cell plate is placed into the incubator to culture overnight.
The compounds are diluted in a linear gradient with DMSO.
0.5 ul compounds is added into the test well, mixed on oscillators, and incubated at room temperature for 2 hours.
Proportioned hEGF solution is added to test well at 50 μl per well, and the final concentration is 100 ng/ml. serum-free medium is added into The negative control well at 50 μl per well.
The solution is mixed on oscillator and incubated at room temperature for 2 hours.
The liquid in 96 well plates is aspirated by multichannel pipette or the supernatant is discarded gently. The proportioned complete lysate is added quickly at 50 μl per well.
The solution is mixed on oscillator and lysed at room temperature for 30 min.
16 μl cell lysate is transferred from the 96 well plates to white low volume 384 well plates, and the proportioned two pairs of detection antibody are added. The solution is mixed on oscillator, and incubated at room temperature for 4 hours to detect the readings.

PI3 K γ = molecular target: T1, PI3 K γ (Homo sapiens, UniProt P48736); assay: Inhibitory activity to PI3K γ, PI 3-Kinase (human) HTRF Assay kit; format: biochemical; conditions: for inhibition at 1 µM / inhibition at 10 µM: read-out: Inhibition rate % to PI3 K γ
T1 construct: purchased Biology, Medicilon
T1 sequence (P48736 whole entry): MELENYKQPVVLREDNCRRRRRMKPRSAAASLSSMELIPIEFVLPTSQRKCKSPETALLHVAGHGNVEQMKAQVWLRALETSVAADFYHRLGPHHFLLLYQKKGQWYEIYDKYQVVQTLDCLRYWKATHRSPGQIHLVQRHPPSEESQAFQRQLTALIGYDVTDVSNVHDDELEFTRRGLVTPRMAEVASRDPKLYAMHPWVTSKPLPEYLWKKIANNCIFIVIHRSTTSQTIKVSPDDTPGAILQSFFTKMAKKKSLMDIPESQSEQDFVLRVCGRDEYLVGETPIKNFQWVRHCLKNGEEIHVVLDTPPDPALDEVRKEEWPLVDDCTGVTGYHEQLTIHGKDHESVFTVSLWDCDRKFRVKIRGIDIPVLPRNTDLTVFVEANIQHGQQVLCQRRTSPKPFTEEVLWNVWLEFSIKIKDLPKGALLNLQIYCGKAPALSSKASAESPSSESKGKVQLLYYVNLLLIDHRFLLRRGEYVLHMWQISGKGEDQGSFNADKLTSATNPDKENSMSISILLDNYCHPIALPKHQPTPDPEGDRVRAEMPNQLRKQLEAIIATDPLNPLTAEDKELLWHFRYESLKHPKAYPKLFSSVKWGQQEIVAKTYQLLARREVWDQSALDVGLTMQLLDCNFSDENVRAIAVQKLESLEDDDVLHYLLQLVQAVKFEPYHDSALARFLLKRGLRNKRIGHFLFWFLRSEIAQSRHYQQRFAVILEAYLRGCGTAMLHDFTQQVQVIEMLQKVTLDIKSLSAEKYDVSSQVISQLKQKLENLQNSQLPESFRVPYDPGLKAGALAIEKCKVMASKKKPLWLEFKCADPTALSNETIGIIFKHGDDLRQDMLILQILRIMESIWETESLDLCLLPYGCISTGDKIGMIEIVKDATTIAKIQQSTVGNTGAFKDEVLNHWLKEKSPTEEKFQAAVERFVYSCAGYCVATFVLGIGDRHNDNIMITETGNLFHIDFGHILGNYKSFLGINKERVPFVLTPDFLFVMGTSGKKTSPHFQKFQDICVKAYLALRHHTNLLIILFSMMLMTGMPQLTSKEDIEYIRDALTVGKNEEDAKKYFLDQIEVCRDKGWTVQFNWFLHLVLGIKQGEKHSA
Procedure, shortened: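 HTRF kinase assay with PI3Kγ at 80 ng/well, 10 μM PIP2 and 100 μM ATP (both final) in DTT-containing reaction buffer, 1% DMSO. Preliminary screen at 10 μM and 1 μM compound, followed by IC50 determination for selected compounds.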

PDGFR β enzyme = molecular target: T2, PDGFR β enzyme (Homo sapiens, UniProt P09619); assay: Inhibitory activity to PDGFR β enzyme, HTRF kinEASE TK kit; format: biochemical; conditions: for inhibition at 1 µM / inhibition at 10 µM: read-out: Inhibition rate % (PDGFR β)
T2 construct: purchased Invitrogen P3082
T2 sequence (P09619 33-1106): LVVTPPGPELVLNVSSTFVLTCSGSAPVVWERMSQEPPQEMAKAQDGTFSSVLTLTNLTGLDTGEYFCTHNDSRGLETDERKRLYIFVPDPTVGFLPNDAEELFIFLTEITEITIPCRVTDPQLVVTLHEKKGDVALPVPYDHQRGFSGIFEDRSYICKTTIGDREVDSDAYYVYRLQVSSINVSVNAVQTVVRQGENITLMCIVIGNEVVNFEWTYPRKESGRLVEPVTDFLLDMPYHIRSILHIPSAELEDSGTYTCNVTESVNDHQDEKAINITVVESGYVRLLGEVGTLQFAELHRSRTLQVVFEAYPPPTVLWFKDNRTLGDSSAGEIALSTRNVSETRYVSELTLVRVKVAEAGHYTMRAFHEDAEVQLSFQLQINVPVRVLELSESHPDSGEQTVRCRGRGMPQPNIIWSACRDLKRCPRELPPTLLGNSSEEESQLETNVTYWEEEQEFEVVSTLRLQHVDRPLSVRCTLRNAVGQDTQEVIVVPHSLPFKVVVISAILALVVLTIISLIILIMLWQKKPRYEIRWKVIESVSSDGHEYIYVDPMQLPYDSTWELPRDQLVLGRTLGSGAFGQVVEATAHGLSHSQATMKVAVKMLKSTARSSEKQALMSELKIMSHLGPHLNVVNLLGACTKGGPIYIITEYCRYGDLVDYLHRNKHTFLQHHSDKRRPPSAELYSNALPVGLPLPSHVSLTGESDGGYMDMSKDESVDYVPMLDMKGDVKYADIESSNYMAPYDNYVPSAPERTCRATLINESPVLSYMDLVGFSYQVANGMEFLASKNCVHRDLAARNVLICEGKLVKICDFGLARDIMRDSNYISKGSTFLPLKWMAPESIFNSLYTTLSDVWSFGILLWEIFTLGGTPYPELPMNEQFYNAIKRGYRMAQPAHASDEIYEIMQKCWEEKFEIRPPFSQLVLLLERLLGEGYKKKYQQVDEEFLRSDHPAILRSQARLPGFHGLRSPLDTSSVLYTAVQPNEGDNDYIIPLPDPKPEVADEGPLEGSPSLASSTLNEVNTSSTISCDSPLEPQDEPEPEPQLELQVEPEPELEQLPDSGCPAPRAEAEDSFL
Procedure, shortened: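 Recombinant human PDGFRβ phosphorylating TK-substrate in kinase buffer containing MgCl2, MnCl2, DTT and SEB, with ATP. Phosphorylation detected by HTRF using TK-Ab-Cryptate and Sa-XL665.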

PI3Kδ = molecular target: T3, PI3Kδ (Homo sapiens, UniProt O00329); assay: Inhibitory activity to PI3K δ, PI 3-Kinase (human) HTRF Assay kit; format: biochemical
T3 construct: purchased Millipore 14-604
T3 sequence (O00329 whole entry): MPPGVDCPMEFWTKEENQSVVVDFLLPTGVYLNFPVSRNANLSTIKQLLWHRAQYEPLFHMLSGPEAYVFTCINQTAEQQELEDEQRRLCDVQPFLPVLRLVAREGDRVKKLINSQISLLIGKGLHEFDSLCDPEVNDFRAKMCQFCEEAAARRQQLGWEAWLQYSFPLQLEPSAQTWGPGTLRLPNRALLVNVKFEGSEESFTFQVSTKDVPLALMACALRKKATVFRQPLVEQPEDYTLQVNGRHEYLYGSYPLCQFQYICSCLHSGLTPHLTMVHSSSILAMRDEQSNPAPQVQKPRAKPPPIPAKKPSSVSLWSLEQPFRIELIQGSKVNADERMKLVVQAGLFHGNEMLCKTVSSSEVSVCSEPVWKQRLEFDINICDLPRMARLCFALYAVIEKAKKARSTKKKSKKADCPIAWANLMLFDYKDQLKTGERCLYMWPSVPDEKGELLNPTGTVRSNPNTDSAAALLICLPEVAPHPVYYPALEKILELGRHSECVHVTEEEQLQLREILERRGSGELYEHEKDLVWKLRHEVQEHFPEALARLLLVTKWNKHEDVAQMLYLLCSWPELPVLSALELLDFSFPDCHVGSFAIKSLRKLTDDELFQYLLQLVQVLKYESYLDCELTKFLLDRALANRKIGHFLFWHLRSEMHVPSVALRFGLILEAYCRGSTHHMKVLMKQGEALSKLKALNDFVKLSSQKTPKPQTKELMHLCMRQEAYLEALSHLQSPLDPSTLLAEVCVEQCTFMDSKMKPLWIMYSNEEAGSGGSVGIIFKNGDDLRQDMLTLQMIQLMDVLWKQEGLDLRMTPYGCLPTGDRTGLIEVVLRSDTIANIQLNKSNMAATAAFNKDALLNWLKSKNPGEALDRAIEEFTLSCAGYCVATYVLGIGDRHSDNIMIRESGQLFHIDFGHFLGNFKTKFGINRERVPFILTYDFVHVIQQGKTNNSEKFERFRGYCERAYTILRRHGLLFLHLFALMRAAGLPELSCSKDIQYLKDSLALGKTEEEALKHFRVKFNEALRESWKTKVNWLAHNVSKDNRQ
T3 sequence (P27986 whole entry partner): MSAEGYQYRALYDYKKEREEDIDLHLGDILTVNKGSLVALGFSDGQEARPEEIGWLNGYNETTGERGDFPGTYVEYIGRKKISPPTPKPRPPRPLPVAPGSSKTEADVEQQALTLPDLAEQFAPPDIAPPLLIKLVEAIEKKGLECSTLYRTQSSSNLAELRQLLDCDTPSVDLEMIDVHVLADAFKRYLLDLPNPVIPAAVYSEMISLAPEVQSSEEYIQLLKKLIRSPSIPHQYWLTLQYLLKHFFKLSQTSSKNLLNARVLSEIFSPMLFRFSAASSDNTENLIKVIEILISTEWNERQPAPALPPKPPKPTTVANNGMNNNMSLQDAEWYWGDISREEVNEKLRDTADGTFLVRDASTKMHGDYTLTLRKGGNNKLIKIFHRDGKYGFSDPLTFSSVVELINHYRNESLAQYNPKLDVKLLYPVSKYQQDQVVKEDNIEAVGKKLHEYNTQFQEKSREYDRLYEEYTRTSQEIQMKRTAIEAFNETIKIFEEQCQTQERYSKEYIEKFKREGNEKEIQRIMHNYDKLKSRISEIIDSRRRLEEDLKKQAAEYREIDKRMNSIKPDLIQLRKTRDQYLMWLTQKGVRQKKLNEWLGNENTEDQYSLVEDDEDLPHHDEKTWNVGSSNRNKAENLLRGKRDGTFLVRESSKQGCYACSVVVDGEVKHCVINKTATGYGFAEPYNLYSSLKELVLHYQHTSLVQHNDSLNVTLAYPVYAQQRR
Procedure, shortened: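 Inhibition of human PI3Kδ was assessed with the Millipore PI 3-Kinase (human) HTRF Assay kit. PI3Kδ was screened at 2 ng/well, diluted in 2×PIP2 operating fluid. Reactions were 20 μL and contained 100 μM ATP. Stop solution was Stop A and Stop B mixed 3:1. Detection solution was DM C, DM A and DM B mixed 18:1:1. Compounds were prepared from DMSO stocks, and percent inhibition was reported.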

[2] = tested on: BT474 human breast cancer cell strain; assay: Antitumor cell proliferation in vitro, CCK-8 detection kit, BT474; format: cell-based; conditions: BT-474 cells, 1st and 2nd test where printed
Experimental: (§1) The half inhibitory concentration IC50 of proliferation of three kinds of tumor cell strain (U87MG, PC-3, BT474) for 12 candidate compounds of the present invention is detected by CCK-8 detection kits.
BT474 human breast cancer cell strain (cell bank of Chinese Academy of Sciences) Reagents and materials:
(§2) The studied compounds are dissolved by DMSO to make the final concentration 10 mM.
(§3) • a) Collecting the cells in logarithmic phase, counting, and resuspending the cells with complete medium. • b) Adjusting the concentration of cells to a suitable concentration, inoculating in 96 well plates, each well is inoculated to 100 μl cell suspension.
(§4) c) incubating cells for 24 hours in a 5% CO2 incubator at temperature of 37° C., under the condition of 100% relative humidity.
(§5) a) The cells in logarithmic phase is collected, counted, resuspended with complete medium. The concentration of cells is adjusted to a suitable concentration (determined in accordance with the optimizable test results of cell density), and the cells is inoculated in 96 well plates, wherein each well is inoculated 100 μl cell suspension, Cells are incubated for 24 hours in 5% CO2 incubator at temperature of 37° C. under the condition of 100% relative humidity.
(§6) b) The test compounds are diluted to 500 μM with culture medium, then diluted in series eight times. […] as 25 μl/well. The final concentrations of the compounds are diluted from 100 μM to 0 μM, with 4 times dilution, and there are a total of 10 concentration points.
(§7) c) Cells are incubated for 72 hours in 5% CO2 incubator at temperature of 37° C. under the condition of 100% relative humidity.
(§8) d) The culture medium is aspirated and discarded, and complete medium containing 10% CCK-8 is incubated in a incubator at 37° C. for 2˜4 hours.
(§9) e) After shocking gently, the absorbance of the culture medium is measured at 450 nm wavelength on SpectraMax M5 Microplate Reader, with the absorbance at 650 nm as reference, to calculate the inhibition rate.

PI3K α = molecular target: T4, PI3K α (Homo sapiens, UniProt P42336); assay: Inhibitory activity to PI3K α, PI 3-Kinase (human) HTRF Assay kit; format: biochemical; conditions: read-out: % Inhibition Rate to PI3K α
T4 construct: purchased Millipore 14-602
T4 sequence (P42336 whole entry): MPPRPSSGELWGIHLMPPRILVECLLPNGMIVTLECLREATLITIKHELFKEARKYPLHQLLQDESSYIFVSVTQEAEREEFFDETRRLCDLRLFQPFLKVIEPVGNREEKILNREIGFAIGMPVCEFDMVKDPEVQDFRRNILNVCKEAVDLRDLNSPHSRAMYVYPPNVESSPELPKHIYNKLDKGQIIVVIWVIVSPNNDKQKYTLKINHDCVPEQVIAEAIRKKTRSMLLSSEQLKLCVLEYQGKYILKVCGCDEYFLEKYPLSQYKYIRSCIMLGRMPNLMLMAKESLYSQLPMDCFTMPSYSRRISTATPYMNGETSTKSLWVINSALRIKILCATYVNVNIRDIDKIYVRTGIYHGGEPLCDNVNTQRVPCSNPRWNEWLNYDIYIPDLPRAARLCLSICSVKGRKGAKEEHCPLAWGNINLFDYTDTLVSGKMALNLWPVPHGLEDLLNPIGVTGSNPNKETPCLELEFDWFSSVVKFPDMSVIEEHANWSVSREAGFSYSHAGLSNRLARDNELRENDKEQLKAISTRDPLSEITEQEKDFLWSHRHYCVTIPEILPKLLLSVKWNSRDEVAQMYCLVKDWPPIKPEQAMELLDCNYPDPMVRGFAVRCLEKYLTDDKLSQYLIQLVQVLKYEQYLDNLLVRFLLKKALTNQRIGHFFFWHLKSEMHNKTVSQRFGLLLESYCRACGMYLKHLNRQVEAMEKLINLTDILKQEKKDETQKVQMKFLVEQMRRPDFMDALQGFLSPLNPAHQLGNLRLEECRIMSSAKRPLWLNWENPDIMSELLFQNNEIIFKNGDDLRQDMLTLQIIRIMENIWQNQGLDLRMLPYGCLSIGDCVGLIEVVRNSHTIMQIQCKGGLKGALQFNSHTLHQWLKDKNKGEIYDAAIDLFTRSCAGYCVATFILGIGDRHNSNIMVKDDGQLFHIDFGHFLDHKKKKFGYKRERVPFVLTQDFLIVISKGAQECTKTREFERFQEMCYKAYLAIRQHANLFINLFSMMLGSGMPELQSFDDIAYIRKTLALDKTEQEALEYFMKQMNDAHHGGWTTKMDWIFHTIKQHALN
T4 sequence (P27986 whole entry partner): as the sequence (P27986 whole entry partner) above
Text: Study on the inhibitory activity of the compounds of present invention to PI 3κα, PI3κδ and PI3κγ. Two or three concentrations of the compounds are selected to preliminary screening to calculate respectively the activity inhibition rate of the compounds of corresponding concentrations to enzyme, then the compounds with better activity are selected by preliminary screening for IC50 test.
PI 3-Kinase (human) HTRF™ Assay kit (Cat.33-017, Millipore)
PI 3k α (Cat.14-602, Millipore)
4× Reaction Buffer (Cat.33-002, Millipore) is diluted with ddH2O to 1.33×, and 1M DTT is added to make the final concentration as 6.67 mM. For example, 10 μL DTT is added into 500 μL 4× Reaction Buffer, and water is added to 1.5 mL.
The Test compounds are dissolved with DMSO to 1 mM as storage liquid. 2 μL of each of storage liquid is added into 48 μL ddH2O, to obtain the 40 μM compounds solution containing 4% DMSO. After mixing, 3 μL of each of the solution is added into 27 μL 4% DMSO (in ddH2O) to obtain the 4 μM compounds solution. 5 μL of each dilute solution is added into 384-well plates, then the final concentration of the compounds in the 20 μL final kinase reaction system is 10 μM and 1 μM respectively contained 1% DMSO. The dilution methods of compounds are similar to the preliminary screening in IC50 test.
2×PIP2 working fluid is prepared with 1.33× reaction buffer to the final concentration of 20 μM.
The screening concentration of PI 3k α kinase: 8 ng/well,
Kinase is diluted with 2×PIP2 operating fluid, the concentration of kinase operating fluid is 2 times of screening concentration.
10 mM ATP is diluted with 1.33× reaction buffer to 400 μM. The concentration of ATP is 100 μM in 20 μL kinase reaction system.
Stop A and Stop B are mixed according to the proportion of 3:1, and are placed for 2 hours at room temperature to obtain the stop solution available.
DM C, DM A and DM B are mixed according to the proportion of 18:1:1, and are placed for 2 hours at room temperature to obtain the detection solution available.

[3] = tested on: PC-3 human prostate cancer cell strain; assay: Antitumor cell proliferation in vitro, CCK-8 detection kit, PC-3; format: cell-based; conditions: PC-3 cells, 1st and 2nd test where printed
Experimental: as §1
PC-3 human prostate cancer cell strain (cell bank of Chinese Academy of Sciences)
as §2, §3, §4, §5, §6, §7, §8, §9

[4] = tested on: U87MG human glioblastoma Multiforme cell strain; assay: Antitumor cell proliferation in vitro, CCK-8 detection kit, U87MG; format: cell-based; conditions: U-87 MG, 72 h, U-87MG cells, 1st and 2nd test where printed
Experimental: as §1
U87MG human glioblastoma Multiforme cell strain (cell bank of Chinese Academy of Sciences)
as §2, §3, §4, §5, §6, §7, §8, §9

[5] = 1 μM (Table 7), read-out: Inhibition rate % to PI3Kδ
[6] = 10 μM (Table 7), read-out: Inhibition rate % to PI3Kδ

Row | SMILES | IC50 ([1]; Homo sapiens, PC-3, PC-3 cells) | inhibition at 1 µM (PI3 K γ; 1 μM) | inhibition at 10 µM (PI3 K γ; 10 μM) | inhibition at 1 µM (PDGFR β enzyme; 1 μM) | inhibition at 10 µM (PDGFR β enzyme; 10 μM) | inhibition at 1 µM (PI3Kδ; [5]) | inhibition at 10 µM (PI3Kδ; [6]) | also measured
1 | c1ccc(-c2ccnc3ccc(Nc4nc(NC5CC5)c5nc[nH]c5n4)cc23)cc1 [MED1007-31, N6-cyclopropyl-N2-(4-phenylquinoline-6-yl)-9H-purine-2,6 diamine] | 112 nM | – | – | – | – | – | – | Inhibition rate % to PI3 K γ (PI3 K γ; 1 μM): 11.33%; Inhibition rate % to PI3 K γ (PI3 K γ; 10 μM): 52.59%; Inhibition rate % (PDGFR β) (PDGFR β enzyme; 1 μM): 13.84%; Inhibition rate % (PDGFR β) (PDGFR β enzyme; 10 μM): 26.16%; Inhibition rate % to PI3Kδ (PI3Kδ; 1 μM (Table 7), 1 µM): 40.16%; Inhibition rate % to PI3Kδ (PI3Kδ; 10 μM (Table 7), 10 µM): 97.80%
2 | c1cnc2ccc(Nc3nc(OC4CCCC4)c4nc[nH]c4n3)cc2c1 [MED1007-35, N-(6-cyclopentyloxy-9H-purine-2-yl) quinoline-6-amine] | 74.5 nM | 19.2% | 53% | 54.8% | 99% | 44.4% | 87.4% | –
3 | CC(C)Oc1nc(Nc2ccc3nccc(-c4ccccc4)c3c2)nc2[nH]cnc12 [MED1007-51, N-(6-isopropoxy-9H-purine-2-yl)-4-(phenyl-1-yl) quinoline-6-amine] | – | 1.16% | 56.2% | – | – | 39.6% | 75.5% | IC50 ([1]; PC-3 cells): 1.14 nM and 0.683 nM; IC50 ([2]; 72 hours): 81.4 nM and 114 nM; inhibition at 1 µM (PDGFR β enzyme): 11.9%; inhibition at 10 µM (PDGFR β enzyme): 33.6%
4 | COc1ccc(-c2ccnc3ccc(Nc4nc(NC5CC5)c5nc[nH]c5n4)cc23)cc1 [MED1007-63, N6-cyclopropyl-N2-(4-(4-methoxyphenyl)quinoline-6-yl)-9H-purine-2,6-diamine] | 62.2 nM | 0.96% | 14.7% | -0.31% | 28% | 37.5% | 122% | –
5 | c1ccc(-c2ccnc3ccc(Nc4nc(N5CCCC5)c5nc[nH]c5n4)cc23)cc1 [MED1007-103, 4-phenyl-N-(6-(pyrrolidine-1-yl)-9H-purine-2-yl)quinoline-6-amine] | 276 nM | – | – | – | – | 68% | 87.5% | inhibition at 1 µM (PI3K α; 1 μM): 55.3%; inhibition at 10 µM (PI3K α; 10 μM): 82.2%
6 | CC(C)Oc1nc(Nc2ccc3nccc(-c4ccccc4)c3c2)nc2[nH]cnc12 [MED1007-108, N-(6-isopropoxy-9H-purine-2-yl)-4-(phenyl-1-yl) quinoline-6-amine-methanesulfonate] | 3.83 nM | – | – | – | – | – | – | IC50 ([1]; PC-3 cells): 6.51 nM; IC50 ([2]; 72 hours): 35 nM; IC50 ([2]; Homo sapiens, BT-474, 72 h): 63 nM; IC50 ([3]; Homo sapiens, PC-3, 72 h): 71.6 nM; IC50 ([3]; 72 hours): 113 nM; inhibition at 0.4 µM (PI3Kδ; 0.4 μM (Table 8), read-out: Inhibition rate % to PI3K delta): 40.5%; inhibition at 2 µM (PI3Kδ; 2 μM (Table 8), read-out: Inhibition rate % to PI3K delta): 78.6%; inhibition at 10 µM (PI3Kδ; 10 μM (Table 8), read-out: Inhibition rate % to PI3K delta): 89%
7 | c1cnc2ccc(Nc3nc(NC4CC4)c4nc[nH]c4n3)cc2c1 [XC-302, reference compound] | – | 18.3% | 49.3% | 51.1% | 96.5% | – | – | IC50 ([2]; Homo sapiens, BT-474, 72 h): 5870 nM; IC50 ([3]; Homo sapiens, PC-3, 72 h): 15000 nM; IC50 [4]: 17800 nM
